The source of these data is US20260098008A1, “COVALENT, CHEMOGENETIC ACTIVATORS FOR K2P POTASSIUM CHANNELS AND USES THEREOF” (THE REGENTS OF THE UNIVERSITY OF CALIFORNIA, priority 2022, published 2026).

Holding throughout (assay): Single channel recordings from HEK293 cells in cell attached mode
Type in all cases: cell-based
Holding throughout (conditions): 20 μM; for Change of open probability (Po activator/Po control): cell-attached, -100 mV

Assay [1] concerns the target T1, CG*-WT tandem K2P2.1 (TREK-1) (Mus musculus, UniProt P97438, S146C).
T1 construct: expressed in transfected cells; host or cells: Xenopus laevis oocytes injected with mRNA
T1 sequence (P97438 1-411 isoform P97438-2 S131C): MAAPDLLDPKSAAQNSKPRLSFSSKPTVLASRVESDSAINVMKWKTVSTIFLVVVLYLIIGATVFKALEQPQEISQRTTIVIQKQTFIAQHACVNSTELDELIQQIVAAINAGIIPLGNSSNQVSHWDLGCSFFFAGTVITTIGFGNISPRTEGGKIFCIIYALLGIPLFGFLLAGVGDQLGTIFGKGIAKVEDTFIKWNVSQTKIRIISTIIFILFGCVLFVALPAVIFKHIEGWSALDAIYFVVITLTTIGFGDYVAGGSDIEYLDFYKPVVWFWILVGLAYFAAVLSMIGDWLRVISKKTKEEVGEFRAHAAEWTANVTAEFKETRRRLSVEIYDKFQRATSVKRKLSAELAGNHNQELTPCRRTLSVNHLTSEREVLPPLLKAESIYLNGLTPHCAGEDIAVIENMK
T1 sequence (P97438 1-411 isoform P97438-2): T1 sequence (P97438 1-411 isoform P97438-2 S131C) with C131S
The source says:
(§1) Mouse K2P2.1 (TREK-1) (Genbank accession number: NP_034737.2), mouse K2P10.1 (TREK-2) (NM_001316665.1), mouse K2P4.1 (TRAAK) (NM_008431.3), human K2P4.1 (TRAAK) (NM_033310.2) and mouse K2P18.1(TRESK) (NM_207261.3) were used for this study. Point mutations were introduced by site-directed mutagenesis using custom primers and confirmed by sequencing before use. For studies using Xenopus oocytes, K2P channels were subcloned into a previously reported pGEMHE/pMO vector (46). For expression in HEK293 cells, mouse K2P2.1 (TREK-1) and mutants were expressed from a previously described pIRES2-EGFP vector in HEK293 cells (46,47). K2P2.1 (TREK-1) tandems were constructed by connecting the open reading frames for the individual subunits with a linker encoding the […] (SEQ ID NO: 19) sequence. Tandems used for HEK293 cells included an N-terminal HA tag ([…] (SEQ ID NO: 20)) on the first subunit.
(§2) Single-channel recordings of K2P2.1 (TREK-1) tandem mutants were recorded in cell-attached mode using HEK293 cells 48 h after transfection. Acquisition and analysis was preformed using pCLAMP9 and an Axopatch 200B amplifier. Pipettes were pulled using a laser-based micropipette puller (P-2000, Sutter Instruments). Electrode resistance after filling with pipette internal solution ranged from 6 to 10 MΩ. Pipette solution contained the following: 150 mM KCl, 3.6 mM CaCl2, 10 mM HEPES (pH 7.4 with KOH). The bath solution was identical to the pipette solution. Po was measured from 30-120 s recordings of K2P2.1 (TREK-1) activity holding at −100 mV. Channel conductance of K2P2.1 (TREK-1) tandems were measured from 30-60s recordings at either −100 mV or +50 mV holding potential. Recordings of CAT335 activated channels were obtained by bath applying 20 μM CAT335 for 2 min to the coverslip before transferring to the recording chamber. This was necessary as application of CAT335 via perfusion or through the pipette solution activated slowly (>5 min), making it difficult to measure Po from fully activated channels. BL-1249 was applied at 20 μM in the bath solution via perfusion at 3 mL min^−1 (2-4 min). Data were analyzed using Clampfit 11 and GraphPad Prism 9.

For assay [2], the target named is T2, CG*-CG* tandem K2P2.1 (TREK-1) (Mus musculus, UniProt P97438, S146C).
T2 construct: expressed in transfected cells; host or cells: Xenopus laevis oocytes injected with mRNA
T2 sequence (P97438 1-411 isoform P97438-2 S131C) 1: T1 sequence (P97438 1-411 isoform P97438-2 S131C)
T2 sequence (P97438 1-411 isoform P97438-2 S131C) 2: T1 sequence (P97438 1-411 isoform P97438-2 S131C)
Text: as §1, §2

Assay [3] has as its target T3, WT-WT tandem K2P2.1 (TREK-1) (Mus musculus, UniProt P97438).
T3 construct: expressed in transfected cells; host or cells: Xenopus laevis oocytes injected with mRNA
T3 sequence (P97438 1-411 isoform P97438-2) 1: T1 sequence (P97438 1-411 isoform P97438-2 S131C) with C131S
T3 sequence (P97438 1-411 isoform P97438-2) 2: T1 sequence (P97438 1-411 isoform P97438-2 S131C) with C131S
Text: as §1, §2

Substitutions are numbered along the chain they refer to.

As for `O=C(NCc1ccc(Cl)cc1Cl)c1ccc(N2C(=O)C=CC2=O)cc1` [CAT335], the “Effect on single channel conductance” value in assay [1] (-100 mV and +50 mV) is recorded as “minimal to no effect on single channel conductance”; in assay [2] (-100 mV and +50 mV), “minimal to no effect on single channel conductance”; in assay [3] (-100 mV and +50 mV), “minimal to no effect on single channel conductance”. Besides, the “Change of open probability (Po activator/Po control)” value in assay [1] is listed as 6.3; in assay [2] it was 7.8; in assay [3], “no impact on open probability”.

`c1ccc(-c2nn[nH]n2)c(Nc2cccc3c2CCCC3)c1` [BL-1249, reference compound]: the “Change of open probability (Po activator/Po control)” value in assay [1], in assay [2] and in assay [3] was “large increases in Po” each time.
